Measurements taken from patent publication US9888679B2, “Protection of progenitor cells and regulation of their differentiation” (Proteobioactives Pty Ltd, priority 2007, dated 2018).
“Also recorded” adds a separate entry of the source.

Tests used:
[1] = tested on: Primary human progenitor cells; experiment: Progenitor cell proliferation, WST-1 assay; format: cell-based; details: HA alone; day 3 and day 5 cultures; FIG. 20
Procedure: FIG. 4. The Effects of Pentosan Polysulfate (PPS) on Human Progenitor cell Proliferation. Primary human progenitor cells were cultured in 24 well plates in growth media supplemented with PPS at the indicated concentrations. At various time intervals (day 1, 3, 6), the growth media was removed and replaced with phenol red free media containing the tetrazolium salt WST-1 for 2 hours at 37° C./5% CO2. WST-1 is cleaved by mitochondrial dehydrogenase in viable cells to produce a formazan dye that can be detected using an ELISA plate reader at a wavelength of 450 nm. Absorbance at 450 nm for each time point is shown for all concentrations of PPS.
FIG. 20. […] At various time intervals (day 3 & 5), the growth media was removed and replaced with phenol red free media containing the tetrazolium salt WST-1 for 2 hours at 37° C./5% CO2. Absorbance at 450 nm for each time point is shown for all concentrations of PPS and HA.
Primary human progenitor cells were cultured in 24 well plates in growth media supplemented with PPS at the indicated concentrations. At various time intervals (day 1, 3, 6), the growth media was removed and replaced with phenol red free media containing the tetrazolium salt WST-1 for 2 hours at 37° C./5% CO2. WST-1 is cleaved by mitochondrial dehydrogenase in viable cells to produce a formazan dye that can be detected using an ELISA plate reader at a wavelength of 450 nm. Absorbance at 450 nm for each time point is shown for all concentrations of PPS.

[2] = tested on: human progenitor cells; experiment: Proteoglycan synthesis in micromass cultures, 5 days; format: cell-based; details: 5 day micromass; for proteoglycan synthesis (35SO4 incorporation into PGs): hyaluronan in place of PPS, FIG. 19A; for proteoglycan synthesis / chondrogenic differentiation: dextran polysulfate 1-20 micrograms/mL, FIG. 19B
From the text: FIG. 17. Bar graphs showing the concentration dependent effects of PPS on proteoglycan synthesis by human progenitor cells in micromass cultures for 5 days. Data is presented as 35S-GAG radioactivity and as a percentage of control taken as 100%. * P<0.05 relative to control.
FIG. 19. Bar graphs showing the concentration dependent effects of (A) Hyaluronan (Supartz™) and (B) Dextran Polysulfate on proteoglycan synthesis by human progenitor cells in micromass cultures for 5 days. Data is presented as ^35S-GAG radioactivity and as a percentage of control, taken as 100% or as DPM/ug DNA. * P<0.05 relative to control.
The technique used was based on that described by (Denker A E, Haas A R, Nicoll S B and Tuan R S. Chondrogenic differentiation of murine C3H10T1/2 multipotential progenitor cells: I. Stimulation by bone morphogenetic protein-2 in high density micromass cultures. Differentiation (1999); 64: 67-76). Briefly murine Progenitor cells (cell lines C3H10T1/2 or ATDC5) purchased from RIKEN Cell Bank (Tsukuba, Japan) or human immunoselected Stro-1+ Progenitor cells (Mesoblast Ltd, Melbourne, Australia) Ten microlitres (10 μl) of a suspension of the progenitor cells (1×10^7 cells/ml in Ham's F12 medium+10% FBS) were applied to individual wells of a 24-well plates. After incubatation at 37° C. in a humidified atmosphere of 5% CO2/95% air for 2-3 hours, 900 μl of Ham's F12 medium (10% FBS) and 100 μl of PPS solution in the same medium were added slowly into the wells to afford final concentrations of PPS in each of 0, 0.1, 0.5, 1.0, 2.5, 5.0, 10.0, 20.0 μg/ml alone or in combination with rhNC4 (0, 0.1, 0.5, 1.0, 2.5, 5.0, 10.0, 25.0 μg/ml). Each drug concentration was repeated in triplicate. The cells were maintained in culture for up to 10 days. The medium with/without drugs was changed every 3 days but 24 hours before termination of the experiment 80 μl of 50 μCi/ml ^35S-H2SO4 was added to achieve a final ^35SO4 concentration of 5 μCi/ml. The following day, the cells in one of the plates were trypsinized with 150 μl/well of 2.5% trypsin and separated from the medium by centrifugation at 800 g for 10 minutes, washed with 500 μl of 1×PBS and stored in liquid nitrogen for RNA and/or DNA extraction and analysis. Media and supernatants were combined in one tube for each concentration of PPS used. To the tubes was added, 200 μl of 5× Papain solution [2.5 mg/ml Papain, 7.9 mg/ml L-Cysteine in Papain buffer (0.1 M NaAC, 5 mM EDTA, pH6.0)] and the solution incubated at 65° C. for 2 hours. After papain digestion, Four aliquots of 200 μl of digested solution were transferred to a 96-well plate (200 μl/well). The ^35S-GAG released by the digestion step were separated from the free ^35SO4 by adding 20 μl 5% CPC and 10 μl 1 mg/ml CSA with gentle shaking at 300 rpm RT for 20-30 min to precipitate the ^35S-GAG-CPC complexes. The precipitates were collected by filtered through glass fibre filters using a cell harvester. The filters were then air-dried and discs punched to scintillation vials. 3 ml/vial scintillation cocktail liquid was added and vortexed for 30-45 sec. The radioactivity of ^35S—SO4 incorporated the ^35S-GAG-CPC complexes was measured by scintillation counting.
Data is presented as 35S-GAG radioactivity and as a percentage of control taken as 100%. * P<0.05 relative to control.
Similar experiments were undertaken using Hyaluronic acid (SuperArtz (SKK, Tokyo, Japan)) and Dextran polysulfate (MW=5000) (Sigma, Sydney, Australia) in place of PPS. […] Data is presented as 35S-GAG radioactivity and as a percentage of control taken as 100% or as DPM/ug DNA. * P<0.05 relative to control.

[3] = tested on: Murine ATDC5 cell line; experiment: Proteoglycan biosynthesis (35S-GAG) in pellet cultures; format: cell-based; details: FIG. 14; for chondrogenic effect / proteoglycan synthesis: Heparin 1.25-20 ug/mL, 6 day pellet culture
From the text: FIG. 12. A bar graph of the concentration dependent effects of Pentosan Polysulfate (PPS), on the biosynthesis of Proteoglycans (PGs) as determined by the incorporation of radioactively labelled sulfate into the sulfated glycosaminoglycans (^35S-GAG) of PGs in 6 day pellet cultures of murine progenitor cells (ADTC-5). *=p<0.05 relative to control.
FIG. 22. A bar graph of the concentration dependent effects of rhNC4 (batch PBA-1202P) expressed by K. lactis, in the absence (maintenance media, MM) and presence of insulin (10 micrograms/mL) (differentiation media, DM), on the biosynthesis of Proteoglycans PGs) in pellet cultures of ATDC5 cells. Data is shown as the % change relative to controls taken to be 100%.
Murine Progenitor cells (cell lines C3H10T1/2 or ATDC5) purchased from RIKEN Cell Bank (Tsukuba, Japan) or human immunoselected Stro-1+ Progenitor cells (Mesoblast Ltd, Melbourne, Australia) were seeded in 2 ml screw-capped sterile centrifuge tubes and the total volume made-up to 1 ml with DMEM-High glucose medium containing 10% FBS. Progenitor cells were then centrifuged at 500 g for 10 min in a swing-out rotor at room temperature. The screw caps were loosened and the tubes placed in an incubator at 37° C., in a 5% CO2/95% air moist atmosphere. The pellets generally formed within 24 hours. Medium was changed daily in the first two days, then once every 2-3 days thereafter. On day 5 the medium was removed and to each tube was added 1 ml with DMEM-High glucose medium containing 10% FBS, 5.0 μCi/ml ^35S-H2SO4 and various concentrations of PPS (0, 0.1, 0.5, 1.0, 2.5, 5.0, 10.0, 20.0, μg/ml) (FIG. 12-15) or rhNC4 (0, 0.1, 0.5, 1.0, 2.0 μg/ml) (FIG. 22). Triplicate cultures were used for all concentration of drugs. The screw caps were loosened and the tubes placed in an incubator at 37° C., in a 5% CO2/95% moist air atmosphere […]. On day 6, 200 μl of stock papain solution [2.5 mg/ml papain, 7.9 mg/ml L-Cystein in papain buffer (0.1 M NaAC, 5 mM EDTA, pH6.0)] was added to each tube. The tubes were tightly capped and incubated at 65° C. for 2 hours. After papain digestion, 4 replicates of 200 μl of papain digested solution were separately transferred to a 96-well micro-titre plate (200 μl/well). The remaining solution was used for the DNA fluorometric assays which were undertaken in triplicate as described above. Biosynthesis of ^35S-GAGs was determined as described for the monolayer cultures and the results expressed as ^35-S-GAGs/μg DNA.
Data is shown as the % of controls taken to be 100%.

[4] = tested on: ATDC5 cell; experiment: Kinetics of ATDC5 cell growth over 13 days; format: cell-based, murine; details: rhNC4 (batch PBA-1200P) 5 ug/ml or Insulin 10 ug/ml; 20,000 cells per well at Day 0; FIG. 30
Procedure: FIG. 30. A bar graph of the kinetics of ATDC5 cell growth induced by rhNC4 (batch PBA-1200P) (5 ug/ml) or Insulin (10 ug/ml) relative to control over 13 days. 20,000 cells per well were seeded at Day 0 (Start) with medium changes every 48 hrs. Insulin treated cultures reached confluence on day 6 and PBA-1200P on day 9. Control cultures also reached confluence on day 9 but in contrast to cultures containing insulin or PBA-1200P ceased to undergo replication.

Hyaluronan [HA]
progenitor cell proliferation (WST-1) [1]: absence of any significant stimulatory effect | proteoglycan synthesis (35SO4 incorporation into PGs) [2]: appeared to increase synthesis of proteoglycans but not strongly | proteoglycan synthesis (35SO4 incorporation into PGs) ([2]; listed as hyaluronan (HA)): low level of ^35SO4 incorporation into PGs

Heparin
chondrogenic effect / proteoglycan synthesis [3]: does not exhibit a chondrogenic effect; also recorded: failed to significantly stimulate proteoglycan synthesis | chondrogenic effect / proteoglycan synthesis ([3]; listed as heparin): suppressing chondrogenesis | proteoglycan synthesis ([3]; Heparin 2.5 ugrams/mL, pellet culture): little activity | proteoglycan synthesis ([3]; Heparin at higher concentrations (above 2.5 ugrams/mL)): may cause inhibition

Dextran polysulfate
proteoglycan synthesis / chondrogenic differentiation [2]: downregulate or repress differentiation | proteoglycan synthesis / chondrogenic differentiation ([2]; listed as Dextran Sulfate (DS)): inhibited PG synthesis | proteoglycan synthesis / chondrogenic differentiation ([2]; listed as dextran sulfate): concentration dependent reduction in the production of proteoglycans

Insulin
day on which cultures reached confluence [4]: 6 days
